Test results published in ChEMBL document CHEMBL1154027, “Imidazopyridine derivatives as potent and selective Polo-like kinase (PLK) inhibitors” (Bioorg Med Chem Lett, 2009).

Test: Plasma concentration in F344/NJcl-rnu nude rat at 0.45 mg/kg after 48 hrs
Type: ADME, organism-based
Design: dose 0.45 mg/kg
Settings: not given

concentration at 48 h [nM] | Structure (SMILES)
50 | C[C@@H](Oc1cc(-c2cnc3ccccn23)sc1C(N)=O)c1ccc(CNC(C)(C)C)cc1OC(F)F

Test: Plasma concentration in F344/NJcl-rnu nude rat at 0.60 mg/kg after 48 hrs
Type: ADME, organism-based
Design: dose 0.6 mg/kg
Settings: 0.6 mg/kg

concentration at 48 h [nM] | Structure (SMILES)
80 | C[C@@H](Oc1cc(-c2cnc3ccccn23)sc1C(N)=O)c1ccc(CNC(C)(C)C)cc1OC(F)F

Test: Lipophilicity, Log D of the compound
Type: physicochemical
Settings: octanol/water

Structure (SMILES) | logD
NC(=O)c1sc(-c2cnn3ccccc23)cc1OCc1ccccc1C(F)(F)F | 4.8
NC(=O)c1sc(-c2cnc3ccccn23)cc1OCc1ccccc1C(F)(F)F | 4.2
C[C@@H](Oc1cc(-c2cnc3ccccn23)sc1C(N)=O)c1ccc(CNC(C)(C)C)cc1F | 2.2
CC(C)NCc1ccc([C@@H](C)Oc2cc(-c3cnc4ccccn34)sc2C(N)=O)c(Cl)c1 | 2.3
C[C@@H](Oc1cc(-c2cnc3ccccn23)sc1C(N)=O)c1ccc(CNC(C)(C)C)cc1Cl | 2.9
CC(Oc1cc(-c2cnc3ccccn23)sc1C(N)=O)c1cc(CO)ccc1Cl (stereo unspecified) | 3.7
C[C@@H](Oc1cc(-c2cnc3ccccn23)sc1C(N)=O)c1ccc(CN2CCNC(=O)C2)cc1Cl | 2.8
CC(Oc1cc(-c2cnc3cc(CO)ccn23)sc1C(N)=O)c1ccccc1Cl (racemic) | 4.1
C[C@@H](Oc1cc(-c2cnc3ccccn23)sc1C(N)=O)c1ccc(CNC(C)(C)CO)cc1Cl | 2.9
C[C@@H](Oc1cc(-c2cnc3ccccn23)sc1C(N)=O)c1ccc(CNCCCO)cc1Cl | 2.1
C[C@@H](Oc1cc(-c2cnc3ccccn23)sc1C(N)=O)c1ccccc1Cl | 4.8
NC(=O)c1sc(-c2cnc3ccccn23)cc1OCc1ccccc1Cl | 4.1
C[C@@H](Oc1cc(-c2cnc3ccccn23)sc1C(N)=O)c1ccc(CNC2CC2)cc1Cl | 3.6
C[C@@H](Oc1cc(-c2cnc3ccccn23)sc1C(N)=O)c1ccc(CNC(C)(C)C)cc1OC(F)F | 2.7
C[C@@H](Oc1cc(-c2cnc3ccccn23)sc1C(N)=O)c1ccc(CNCCO)cc1Cl | 2.4
C[C@@H](Oc1cc(-c2cnc3ccccn23)sc1C(N)=O)c1ccc(CN2CCC(F)CC2)cc1Cl | 3.7
C[C@@H](Oc1cc(-c2cnc3ccccn23)sc1C(N)=O)c1ccc(CN2CCN(C)CC2)cc1Cl | 2.8
CCNCc1ccc([C@@H](C)Oc2cc(-c3cnc4ccccn34)sc2C(N)=O)c(Cl)c1 | 2.8
C[C@@H](Oc1cc(-c2cnc3ccc(CO)cn23)sc1C(N)=O)c1ccccc1Cl | 4.2

Continued, values first:

logD | Structure (SMILES)
3.8 | C[C@@H](Oc1cc(-c2cnc3ccccn23)sc1C(N)=O)c1ccc(CO)cc1Cl
3.2 | C[C@@H](Oc1cc(-c2cnc3ccccn23)sc1C(N)=O)c1ccc(CN2CCS(=O)(=O)CC2)cc1Cl
2.9 | C[C@@H](Oc1cc(-c2cnc3ccccn23)sc1C(N)=O)c1ccc(CN(C)C)cc1Cl
3.3 | C[C@@H](Oc1cc(-c2cnc3ccccn23)sc1C(N)=O)c1ccc(CN2CCC(O)C2)cc1Cl (stereo partly specified)
3.2 | C[C@@H](Oc1cc(-c2cnc3ccccn23)sc1C(N)=O)c1ccccc1CO
1.9 | CNCc1ccc([C@@H](C)Oc2cc(-c3cnc4ccccn34)sc2C(N)=O)c(Cl)c1
3.3 | C[C@@H](Oc1cc(-c2cnc3ccccn23)sc1C(N)=O)c1ccc(CN2CCC(O)CC2)cc1Cl
3.5 | C[C@@H](Oc1cc(-c2cnc3ccccn23)sc1C(N)=O)c1ccc(CNC2CCCC2)cc1Cl
4.6 | NC(=O)c1sc(-n2cnc3ccccc32)cc1OCc1ccccc1C(F)(F)F
2.6 | C[C@@H](Oc1cc(-c2cnc3ccccn23)sc1C(N)=O)c1ccc(CNC(C)(C)C)cc1C(F)F
